Data set [1] can be described thus: Oral PK profiles of conjugated oxymorphone in rats (released oxymorphone in plasma by LC-MS/MS). The note with it: for %-AUC / %-Cmax / %-Tmax: 2 mg/kg oxymorphone equivalent, relative to the OM control; for AUC / Cmax / Tmax: conjugate equivalent to 2 mg/kg freebase oxymorphone, released oxymorphone in plasma. Format: in vivo, Sprague-Dawley rats. As to the method:
Oral PK curves were determined for a number of prodrug conjugates of the present technology. Rats were orally administered at an amount of the conjugate equivalent to 2 mg/kg of freebase oxymorphone and the plasma concentrations of released oxymorphone were measured over time by LC-MS/MS.
All PK parameters from the above experiments were calculated and expressed as % change from the control (OM). These PK parameters included maximal plasma concentration (Cmax), area under curve (AUC), and time at which Cmax occurred (Tmax).

Data set [2] in a line: Intranasal PK profiles of conjugated oxymorphone in rats (released oxymorphone in plasma by LC-MS/MS). Format: in vivo. Conditions: for %-AUC / %-Cmax / %-Tmax: 0.2 mg/kg oxymorphone equivalent, relative to the OM control; for AUC / Cmax / Tmax: conjugate equivalent to 0.2 mg/kg freebase oxymorphone, released oxymorphone in plasma. As to the method: Intranasal PK curves were determined for a number of prodrug conjugates of the present technology. Rats were intranasally administered at an amount of the conjugate equivalent to 0.2 mg/kg of freebase oxymorphone and the plasma concentrations of released oxymorphone were measured over time by LC-MS/MS.
All PK parameters from the above experiments were calculated and expressed as % change from the control (OM). These PK parameters included maximal plasma concentration (Cmax), area under curve (AUC), and time at which Cmax occurred (Tmax). These parameters are shown in Table 2 relative to the OM controls.

Usually AUC stands for concentration integrated over time. One may read the Cmax as the highest concentration seen after dosing. The Tmax is the time at which the peak concentration occurs. Consider `COc1ccc(C(=O)OC2=CCC3(O)C4Cc5ccc(OC(=O)c6ccc(OC)cc6)c6c5C3(CCN4C)C2O6)cc1` (stereo not drawn) [3,6-(4-MeO-Bz)2-OM], for which, in data set [1], the “%-AUC” value was determined as 110%, the “%-Cmax” value was determined as 121%, the “%-Tmax” value amounted to 35% and the AUC is 26.0 ng·h/mL. For the same compound, in data set [1], the Cmax amounted to 10.6 ng/mL and the Tmax amounted to 15 min. For the same compound, in data set [2], the “%-AUC” value worked out at 30%, the “%-Cmax” value came out at 9%, the “%-Tmax” value is reported as 167% and the AUC was 24.6 ng·h/mL. For the same compound, in data set [2], the Cmax is on record as 33.5 ng/mL and the Tmax was 8.4 min.

Turning to `CN1CC[C@]23c4c5ccc(OC(=O)/C=C/c6ccccc6)c4O[C@H]2C(OC(=O)/C=C/c2ccccc2)=CC[C@@]3(O)[C@H]1C5` [3,6-(Cinnamate)2-OM], in data set [1], the “%-AUC” value worked out at 38%, the “%-Cmax” value is listed as 43%, the “%-Tmax” value worked out at 50% and the area under the curve (AUC) was determined as 14.5 ng·h/mL. In data set [1], the Cmax was 8.7 ng/mL and the Tmax is 45 min.

Regarding `CC(=O)Oc1ccccc1C(=O)Oc1ccc2c3c1OC1C(=O)CCC4(O)C(C2)N(C)CCC314` (stereo not drawn) [3-(2-AcO-Bz)-OM], in data set [1], the “%-AUC” value is 72%, the “%-Cmax” value worked out at 78%, the “%-Tmax” value is given as 25% and the AUC is 22.5 ng·h/mL. Moreover, in data set [1], the peak concentration (Cmax) was determined as 15.8 ng/mL and the Tmax amounted to 15 min.

Regarding `CN1CC[C@]23c4c5ccc(OC(=O)c6ccccc6O)c4O[C@H]2C(=O)CC[C@@]3(O)[C@H]1C5` [3-(2-OH-Bz)-OM], in data set [1], the “%-AUC” value came out at 72%, the “%-Cmax” value is recorded as 74%, the “%-Tmax” value came to 62% and the AUC was found to be 31.3 ng·h/mL. Moreover, in data set [1], the Cmax was found to be 17.5 ng/mL and the Tmax was found to be 39 min. In data set [2], the “%-AUC” value is 66%, the “%-Cmax” value was found to be 55%, the “%-Tmax” value worked out at 100% and the AUC was 65.9 ng·h/mL. For the same compound, in data set [2], the Cmax amounted to 276.1 ng/mL and the Tmax was 4.8 min.

With `COc1ccc(C(=O)Oc2ccc3c4c2O[C@H]2C(=O)CC[C@@]5(O)[C@@H](C3)N(C)CC[C@]425)cc1` [3-(4-MeO-Bz)-OM], in data set [1], the “%-AUC” value is listed as 100%, the “%-Cmax” value came to 99%, the “%-Tmax” value was determined as 100% and the AUC came to 43.2 ng·h/mL. Also, in data set [1], the Cmax turned out to be 23.6 ng/mL and the Tmax was determined as 63 min. In addition, in data set [2], the “%-AUC” value came out at 76%, the “%-Cmax” value came to 61%, the “%-Tmax” value was 100% and the AUC is 63.1 ng·h/mL. Moreover, in data set [2], the Cmax is listed as 244.9 ng/mL and the Tmax was 4.8 min.

As to `CN1CC[C@]23c4c5ccc(OC(=O)/C=C/c6ccccc6)c4O[C@H]2C(=O)CC[C@@]3(O)[C@H]1C5` [3-Cinnamate-OM], in data set [1], the “%-AUC” value came out at 190%, the “%-Cmax” value was found to be 236%, the “%-Tmax” value amounted to 136% and the AUC stood at 36.8 ng·h/mL. Further, in data set [1], the Cmax came out at 19.0 ng/mL and the Tmax came out at 90 min.

Turning to `CN1CC[C@]23c4c5ccc(OC(=O)c6cc(-c7ccc(F)cc7F)ccc6O)c4O[C@H]2C(=O)CC[C@@]3(O)[C@H]1C5` [3-Diflunisal-OM], in data set [1], the “%-AUC” value is listed as 85%, the “%-Cmax” value is recorded as 52%, the “%-Tmax” value is listed as 340% and the area under the curve (AUC) came to 17.6 ng·h/mL. Besides, in data set [1], the Cmax is listed as 13.2 ng/mL and the Tmax was 51 min. Besides, in data set [2], the “%-AUC” value worked out at 131%, the “%-Cmax” value amounted to 41%, the “%-Tmax” value was found to be 200% and the AUC worked out at 108.2 ng·h/mL. Also, in data set [2], the Cmax is 151.5 ng/mL and the Tmax is 10.2 min.

As to `CC(C(=O)Oc1ccc2c3c1O[C@H]1C(=O)CC[C@@]4(O)[C@@H](C2)N(C)CC[C@]314)c1cccc(Oc2ccccc2)c1` (stereo partly drawn) [3-Fenoprofen-OM], in data set [1], the “%-AUC” value is listed as 59%, the “%-Cmax” value was 52%, the “%-Tmax” value came out at 100% and the AUC worked out at 14.8 ng·h/mL. Besides, in data set [1], the Cmax was found to be 9.6 ng/mL and the Tmax was determined as 36 min.

Regarding `CC(C(=O)Oc1ccc2c3c1O[C@H]1C(=O)CC[C@@]4(O)[C@@H](C2)N(C)CC[C@]314)c1cccc(C(=O)c2ccccc2)c1` (stereo partly drawn) [3-Ketoprofen-OM], in data set [1], the “%-AUC” value is given as 159%, the “%-Cmax” value is 150%, the “%-Tmax” value was determined as 30% and the AUC came to 49.7 ng·h/mL. In data set [1], the Cmax is on record as 30.3 ng/mL and the Tmax worked out at 18 min.

`COc1cc(C(=O)Oc2ccc3c4c2O[C@H]2C(=O)CC[C@@]5(O)[C@@H](C3)N(C)CC[C@]425)ccc1O` [3-Vanillate-OM]: in data set [1], the “%-AUC” value was determined as 92%, the “%-Cmax” value is reported as 97%, the “%-Tmax” value amounted to 46% and the AUC stood at 14.7 ng·h/mL. In data set [1], the Cmax is 7.5 ng/mL and the time of peak concentration (Tmax) is 48 min.

Turning to `CN1CC[C@]23c4c5ccc(O)c4O[C@H]2C(OC(=O)c2ccccc2O)=CC[C@@]3(O)[C@H]1C5` [6-(2-OH-Bz)-OM], in data set [1], the “%-AUC” value stood at 134%, the “%-Cmax” value is 157%, the “%-Tmax” value came out at 60% and the AUC worked out at 50.6 ng·h/mL. Moreover, in data set [1], the Cmax is 31.6 ng/mL and the Tmax was 45 min.

Consider `CN1CC[C@]23c4c5ccc(O)c4O[C@H]2C(OC(=O)c2cccc(N)c2)=CC[C@@]3(O)[C@H]1C5` [6-(3-ABz)-OM], for which, in data set [1], the “%-AUC” value was found to be 46%, the “%-Cmax” value is reported as 32%, the “%-Tmax” value came to 276% and the exposure (AUC) turned out to be 16.7 ng·h/mL. In data set [1], the Cmax came to 6.2 ng/mL and the Tmax stood at 114 min.

Turning to `COc1ccc(C(=O)OC2=CC[C@@]3(O)[C@H]4Cc5ccc(O)c6c5[C@@]3(CCN4C)[C@H]2O6)cc1` [6-(4-MeO-Bz)-OM], in data set [1], the “%-AUC” value was 69%, the “%-Cmax” value came out at 90%, the “%-Tmax” value stood at 22% and the AUC turned out to be 12.2 ng·h/mL. For the same compound, in data set [1], the Cmax amounted to 8.6 ng/mL and the time to peak (Tmax) worked out at 15 min.

On to `CN1CC[C@]23c4c5ccc(O)c4O[C@H]2C(OC(=O)/C=C/c2ccccc2)=CC[C@@]3(O)[C@H]1C5` [6-Cinnamate-OM], for which, in data set [1], the “%-AUC” value amounted to 77%, the “%-Cmax” value amounted to 59%, the “%-Tmax” value was 225% and the AUC is 28.0 ng·h/mL. Besides, in data set [1], the Cmax is 11.4 ng/mL and the Tmax turned out to be 93 min.

As to `CN1CC[C@]23c4c5ccc(O)c4O[C@H]2C(OC(=O)c2cc(-c4ccc(F)cc4F)ccc2O)=CC[C@@]3(O)[C@H]1C5` [6-Diflunisal-OM], in data set [1], the AUC amounted to 67.2 ng·h/mL, the Cmax is given as 50.6 ng/mL and the Tmax was 15 min. In data set [2], the “%-AUC” value came to 25%, the “%-Cmax” value was determined as 11%, the “%-Tmax” value amounted to 100% and the AUC came to 20.7 ng·h/mL. For the same compound, in data set [2], the Cmax was found to be 39.1 ng/mL and the time of peak concentration (Tmax) was 4.8 min.

As to `CC(C(=O)OC1=CCC2(O)C3Cc4ccc(O)c5c4C2(CCN3C)C1O5)c1cccc(C(=O)c2ccccc2)c1` (stereo not drawn) [6-Ketoprofen-OM], in data set [1], the “%-AUC” value is listed as 99%, the “%-Cmax” value is recorded as 47%, the “%-Tmax” value was determined as 260% and the AUC was 20.6 ng·h/mL. Besides, in data set [1], the Cmax was determined as 11.8 ng/mL and the Tmax amounted to 39 min.

With `COc1cc(C(=O)OC2=CC[C@@]3(O)[C@H]4Cc5ccc(O)c6c5[C@@]3(CCN4C)[C@H]2O6)ccc1O` [6-Vanillate-OM], in data set [1], the “%-AUC” value is 56%, the “%-Cmax” value is 65%, the “%-Tmax” value is reported as 97% and the AUC amounted to 8.9 ng·h/mL. Besides, in data set [1], the Cmax was 5.0 ng/mL and the Tmax was 102 min.

Consider `CN1CC[C@]23c4c5ccc(O)c4O[C@H]2C(OC(=O)c2ccccc2)=CC[C@@]3(O)[C@H]1C5` [Conjugate 6-Bz-OM], for which, in data set [1], the “%-AUC” value was 78%, the “%-Cmax” value is 67%, the “%-Tmax” value was 129% and the AUC amounted to 15.0 ng·h/mL. In data set [1], the Cmax was 6.4 ng/mL and the Tmax was determined as 108 min. In data set [2], the “%-AUC” value is 42%, the “%-Cmax” value amounted to 36%, the “%-Tmax” value is 100% and the AUC amounted to 35.1 ng·h/mL. Moreover, in data set [2], the Cmax is 145.2 ng/mL and the Tmax is 4.8 min.

The record behind these values is US10463660B2, “Benzoic acid, benzoic acid derivatives and heteroaryl carboxylic acid conjugates of oxymorphone, prodrugs, methods of making and use thereof” (KemPharm, Inc., priority 2014, dated 2019).
